In PMC12040169 (PLOS Biology, 2025):

Assay: in vitro
Settings: human, hela cells, % viability

| Structure (SMILES) | viability at 28.5 h, 10 µM [%] |
| --- | --- |
| CCCCN(C)c1c(CC)nc2ccc(C(=O)N3CCNC(=O)C3)cn12 [CBK145460] | 87.9 |
| CCc1nc2ccc(C(=O)NCCN3CCNC3=O)cn2c1N(CCN(C)C)CC1CC1 [CBK145469] | 89.2 |
| CCCCN(C=O)c1c(CC)nc2ccc(C(=O)Nc3ccc(Cl)c(Cl)c3)cn12 [CBK145470] | 84.1 |
| CCc1nc2ccc(C(=O)NCc3ccc4c(c3)OCO4)cn2c1N(CCN(C)C)CC1CC1 [CBK145472] | 97.1 |
| CCc1nc2ccc(C(=O)N(C)CCN(C)C)cn2c1N(C)Cc1nccs1 [CBK145474] | 96.8 |
| CCOC(=O)N(C)c1c(CC)nc2ccc(C(=O)Nc3cc(-c4ccccc4)ccc3OC)cn12 [CBK145478] | 89.6 |
| Cc1nc2ccc(C(=O)N3CCCCC3)cn2c1N(C)C=O [CBK145480] | 100 |
| Cc1nc2ccc(C(=O)N(C)Cc3ccco3)cn2c1N(C)C=O [CBK145482] | 99 |
| CCc1nc2ccc(C(=O)Nc3ccc(NC(C)=O)cc3)cn2c1N(C)CC [CBK145483] | 94.5 |
| CCc1nc2ccc(C(=O)NC3CCN(Cc4ccccc4)CC3)cn2c1N(C)CC [CBK145488] | 88.3 |
| CCc1nc2ccc(C(=O)NCc3cccs3)cn2c1N(C)CC [CBK145492] | 108 |
| CCc1nc2ccc(C(=O)NCCOc3ccc(OC)cc3)cn2c1N(C)CC [CBK145504] | 91.9 |
| CCc1nc2ccc(C(=O)N3CCN(S(=O)(=O)CC)CC3)cn2c1N(C)CC [CBK145520] | 85.1 |
| CCc1nc2ccc(C(=O)Nc3ccc4c(c3)OCC(=O)N4)cn2c1N(C)CC [CBK145521] | 96.8 |
| CCc1nc2ccc(C(=O)N3CCN(c4ccccc4)CC3)cn2c1N(C)Cc1ccc(OC)cc1 [CBK145584] | 85.4 |
| CCc1nc2ccc(C(=O)Nc3ccc(Cl)c(Cl)c3)cn2c1N(C)Cc1ccc(OC)cc1 [CBK145585] | 93.6 |
| CCc1nc2ccc(C(=O)NCCNC(C)=O)cn2c1N(C)Cc1ccc(NC(C)=O)cc1 [CBK145612] | 87.4 |
| CCc1nc2ccc(C(=O)N3CCN(C(=O)c4ccco4)CC3)cn2c1N(C)Cc1ccncc1 [CBK145635] | 94.5 |
| CCc1nc2ccc(C(=O)NCCc3c[nH]c4ccccc34)cn2c1N(C)Cc1ccncc1 [CBK145636] | 99.7 |
| CCCCN(C(C)=O)c1c(CC)nc2ccc(C(=O)N(C)CCN(C)C)cn12 [CBK145739] | 91.7 |
| CCCCN(C(C)=O)c1c(CC)nc2ccc(C(=O)NCc3ccccc3OC)cn12 [CBK145761] | 96 |

| Structure (SMILES) | viability at 28.5 h, 10 µM [%] |
| --- | --- |
| CCc1nc2ccc(C(=O)N(C)CCN(C)C)cn2c1N(C)C(=O)C1CCCCC1 [CBK145771] | 93.8 |
| CCc1nc2ccc(C(=O)N3CCNC(=O)C3)cn2c1N(C)C(=O)COc1ccccc1 [CBK145871] | 107 |
| CCc1nc2ccc(C(=O)NC3=NN(c4ccccc4)C(=O)C3)cn2c1N(C)C(=O)COc1ccccc1 [CBK145873] | 91.3 |
| CCc1nc2ccc(C(=O)Nc3ccc(OC)c(OC)c3)cn2c1N(C)C(=O)Nc1ccccc1OC [CBK145875] | 117 |
| CCc1nc2ccc(C(=O)N3CCN(c4ccccc4)CC3)cn2c1N(C)C(=O)Nc1ccccc1OC [CBK145886] | 96.2 |
| CCCCNC(=O)c1ccc2nc(C)c(N(C)CC3CCCCC3)n2c1 [CBK145913] | 99.6 |
| CCc1nc2ccc(C(=O)N(C)Cc3ccccc3)cn2c1N(C=O)CC [CBK145936] | 102 |
| CCN(CC)c1c(C)nc2ccc(C(=O)N(C)CCN(C)C)cn12 [CBK145950] | 90.6 |
| CCN(CC)c1c(C)nc2ccc(C(=O)NC3CCN(C)CC3)cn12 [CBK145965] | 98.7 |
| CCc1nc2ccc(C(=O)N(C)CCN(C)C)cn2c1N(CC)CCOC [CBK146018] | 94.2 |
| CCc1nc2ccc(C(=O)N3CCCCC3)cn2c1N(C)CCC(C)C [CBK146065] | 96.3 |
| Cc1nc2ccc(C(=O)N(C)CCN(C)C)cn2c1N(C)Cc1cccs1 [CBK146083] | 102 |
| COCCN(Cc1ccc(OC)cc1)c1c(C)nc2ccc(C(=O)Nc3ccc(NC(C)=O)cc3)cn12 [CBK146111] | 99.3 |
| CCS(=O)(=O)N1CCN(C(=O)c2ccc3nc(C)c(N(CCOC)Cc4ccc(OC)cc4)n3c2)CC1 [CBK146153] | 98.2 |
| CCc1nc2ccc(C(=O)N3CCCC(C(N)=O)C3)cn2c1N(CC)CCN(C)C (stereo not shown) [CBK146185] | 98.8 |
| CCc1nc2ccc(C(=O)N3CCN(C)CC3)cn2c1N(C)Cc1nccn1C [CBK146299] | 115 |
| CCc1nc2ccc(C(=O)N(C)C(C)C)cn2c1N(C)CCN1CCOCC1 [CBK146436] | 95.2 |
| CCOC(=O)N(C)c1c(CC)nc2ccc(C(=O)N(C)CCCN(C)C)cn12 [CBK146478] | 107 |
| CCC(CC)C(=O)N(C)c1c(C)nc2ccc(C(=O)N(C)CCN(C)C)cn12 [CBK146491] | 94.8 |
| CCC(CC)C(=O)N(C)c1c(C)nc2ccc(C(=O)NCCc3c[nH]c4ccccc34)cn12 [CBK146495] | 85.5 |
| CCC(CC)C(=O)N(C)c1c(C)nc2ccc(C(=O)NCc3ccc(OC)cc3)cn12 [CBK146501] | 97.9 |

| Structure (SMILES) | viability at 28.5 h, 10 µM [%] |
| --- | --- |
| CCC(CC)C(=O)N(C)c1c(C)nc2ccc(C(=O)N3CCN(S(=O)(=O)CC)CC3)cn12 [CBK146524] | 92 |
| CCC(CC)C(=O)N(C)c1c(C)nc2ccc(C(=O)Nc3cccc(NS(C)(=O)=O)c3)cn12 [CBK146526] | 105 |
| Cc1nc2ccc(C(=O)N(C)CCN(C)C)cn2c1N(C)C(=O)c1cccs1 [CBK146528] | 120 |
| Cc1nc2ccc(C(=O)NC3CCN(Cc4ccccc4)CC3)cn2c1N(C)C(=O)c1cccs1 [CBK146529] | 99.9 |
| CCc1nc2ccc(C(=O)NCCN3CCCC3)cn2c1N(C)C(=O)c1ccncc1 [CBK146655] | 90.5 |
| CCc1nc2ccc(C(=O)N3CCN(C(C)=O)CC3)cn2c1N(C)Cc1ccc(Cl)cc1 [CBK146718] | 105 |
| Cc1nc2ccc(C(=O)NC3=NN(c4ccccc4)C(=O)C3)cn2c1N(C)C(=O)CCc1ccccc1 [CBK146817] | 89.8 |
| CCc1nc2ccc(C(=O)N3CCCCC3)cn2c1N(CC)Cc1ccc2c(c1)OCCO2 [CBK146903] | 100 |
| CC(=O)c1ccc(NC(=O)N(C)c2c(C)nc3ccc(C(=O)N4CCN(C(=O)c5ccco5)CC4)cn23)cc1 [CBK146930] | 92.8 |
| CCc1nc2ccc(C(=O)Nc3ccc(C(N)=O)cc3)cn2c1N(CC)Cc1cccc(Br)c1 [CBK146960] | 92.9 |
| CCc1nc2ccc(C(=O)N(C)CCN(C)C)cn2c1N(CC)Cc1cccc(Br)c1 [CBK146962] | 93.1 |
| CCc1nc2ccc(C(=O)Nc3ccc(NC(C)=O)cc3)cn2c1N(CC)Cc1ccc(OC)c(OC)c1 [CBK146994] | 97.8 |
| CCc1nc2ccc(C(=O)Nc3ccc(OC)c(OC)c3)cn2c1N(CC)C(=O)NCCc1ccccc1 [CBK147035] | 97.1 |
| CCCCC(=O)N(C)c1c(C)nc2ccc(C(=O)NCc3cccs3)cn12 [CBK147073] | 103 |
| CC(=O)Nc1ccc(CN(C)c2c(C)nc3ccc(C(=O)N(C)CCN(C)C)cn23)cc1 [CBK147107] | 109 |
| Cc1nc2c(OCCN3C(=O)c4ccccc4C3=O)cccn2c1N(C)C(=O)C1CCCCC1 [CBK147157] | 95 |
| CCCCN(C)c1c(C)nc2c(OCC(=O)c3ccc(F)cc3)cccn12 [CBK147172] | 93.1 |
| CCCCN(C)c1c(C)nc2c(OCC3CCCCO3)cccn12 (stereo not shown) [CBK147180] | 103 |
| CCCCN(C)c1c(C)nc2c(OCc3ccc(S(=O)(=O)N(C)C)cc3)cccn12 [CBK147189] | 96.2 |
| CCCCN(C)c1c(C)nc2c(Oc3ncccn3)cccn12 [CBK147190] | 90.9 |
| CCCCN(C)c1c(C)nc2c(Oc3nc4ccccc4s3)cccn12 [CBK147192] | 93.4 |

| Structure (SMILES) | viability at 28.5 h, 10 µM [%] |
| --- | --- |
| Cc1nc2c(OCCOc3ccc(F)cc3)cccn2c1N(C)C(=O)CCC1CCCC1 [CBK147198] | 103 |
| Cc1ccccc1COc1cccn2c(N(C)CC3CCCO3)c(C)nc12 (stereo not shown) [CBK147231] | 115 |
| Cc1nc2c(OCCOc3ccccc3)cccn2c1N(C)CC1CC1 [CBK147272] | 96.8 |
| Cc1nc2c(OCc3ccc(F)c(F)c3)cccn2c1N(C)CC1CC1 [CBK147276] | 91.9 |
| CCN(C)c1c(C)nc2c(OCc3cccc(Cl)c3)cccn12 [CBK147310] | 100 |
| CCN(C)c1c(C)nc2c(OCC(=O)N(C)C)cccn12 [CBK147316] | 107 |
| Cc1nc2c(OCc3ccc(C#N)cc3)cccn2c1N(C)Cc1cccs1 [CBK147336] | 92 |
| CC(=O)Nc1ccc(CN(C)c2c(C)nc3c(OCC4CCCCC4)cccn23)cc1 [CBK147379] | 93.5 |
| CC(=O)Nc1ccc(CN(C)c2c(C)nc3c(OCc4ccc(C(F)(F)F)cc4)cccn23)cc1 [CBK147380] | 94.5 |
| COc1ccc(CN(C)c2c(C)nc3c(OCCCN(C)S(C)(=O)=O)cccn23)cc1 [CBK147468] | 90 |
| COc1ccc(CN(C)c2c(C)nc3c(OCC(=O)N4CCOCC4)cccn23)cc1 [CBK147469] | 102 |
| CCc1nc2c(OCc3ccc(Cl)cc3)cccn2c1N(C=O)CC(=O)N(C)C [CBK147518] | 96.4 |
| CCCCN(C=O)c1c(CC)nc2c(OCCOc3ccc(F)cc3)cccn12 [CBK147631] | 92.7 |
| CCCCN(C=O)c1c(CC)nc2c(OCc3ccccc3C)cccn12 [CBK147639] | 92.2 |
| CCc1nc2c(OCCC3CCCCC3)cccn2c1N(C)C(=O)CC(C)C [CBK147671] | 94.8 |
| CCc1nc2c(OCCOC)cccn2c1N(C)C(=O)c1ccccc1F [CBK147722] | 91.3 |
| CCc1nc2c(OCc3ccccc3OC)cccn2c1N(C)C(=O)C(C)C [CBK147763] | 97 |
| CCCCC(=O)N(C)c1c(CC)nc2c(OCCn3cccc3)cccn12 [CBK147785] | 102 |
| CCNC(=O)N(C)c1c(CC)nc2c(OCC3CCCCC3)cccn12 [CBK147795] | 108 |
